Patent US12239661B2, “Methods and compositions for treating undesired implanted tissue filler” (priority 2019, dated 2025)
Read-outs that look alike come from different tables or passages of the source. Marks after values point to notes of the source that are not given here.

Experiments:
[1] = SC injection of 1.5 mL into filler nodule
Procedure: (§1) A total of 7 CT-scans were performed at 1 h 15, 2 h, 4 h, 1 day (24 h), 3, 7 and 14 days after injection of the dermal filler. The clinical state of each animal is assessed once a week by body weight measurement and clinical observations.
On day 14, one pig received one SC injection of Radiesse® filler in order to represented a Day 0 injection which is considered a positive control and then, all pigs were euthanized and each nodule with a part of the skin, along with negative control skin (skin samples without injection), were sampled in order to perform histological analysis of, for example, the inflammation, the necrosis and the dermal filler presence at the injection site.

[2] = In vivo CT of filler nodule volume, density and 3D shape after test solutions 0-8 (Example 3)
Procedure: One hour after filler injections (T=1 h), 1.5 mL of selected solutions (Table 5, solutions 0-8, test items, solution 0 is normal saline and not hyperosmotic) were injected each into 9 dermal filler nodules in the right flank (ventral area).
as §1
The 10 SC injections of dermal filler on Day 0 were performed in the ventral area, (five nodules on each flank of the ventral area) for each pig. For each SC nodule, a theoretical volume of 500 μl was administered. One hour (±5 min) after injection of dermal filler, SC injection of the different solutions (prepared the day before) were performed into nine (9) nodules of dermal. For each SC nodule, a theoretical volume of 1.5 mL of test solution was administered.
The X-ray computed tomography acquisitions were performed with the Computed Tomography Scanner BrightSpeed 16 (General Electric). In order to measure the volume and the mean density and to visualize the 3D shape of the dermal filler (Radiesse® filler with or without test solution) injected, in vivo CT-scans were performed on Day 0: 1 h 15 (±10 min), 2 h (±15 min) and 4 h (±20 min), on Day 1 (24 h+1 h), Day 3, Day 7 and Day 14.
During CT acquisition on Day 0, the pigs received an IM injection of anesthesia. The animals were maintained under anesthesia until the CT acquisition at T=2 h (2 h after dermal filler injection session). Between these CT acquisitions, the animals were under surveillance in the recovery room on a heating mat with fluidotherapy. At the end of the CT acquisition at T=2 h, the pigs received a tattoo around each injected site. During the CT acquisitions at T=4 h and on Days 1, 3, 7 and 14, pigs received an IM injection of anesthesia. For the CT-scans, animals were positioned in dorsal recumbency and acquisitions were centered on the injection sites. The parameters of the CT-scan are described in Table 5.
The CT acquisition was analyzed with the software Avizo version 9.2.0. The objective of this analysis was to assess the degradation over time of the dermal filler injected by SC route after injection of different test solutions.
An image segmentation processing was performed on each CT acquisition. First, a manual pre-segmentation was performed around each nodule in order to roughly isolate the voxels corresponding to dermal filler product, which defined a Region of Interest (ROI). Second, an automatic segmentation was applied on the previously defined ROI using a global grey level thresholding procedure.
On day 0, a farm pig received ten (10) SC injections of Radiesse® dermal filler 0.5 mL (ventral area) (10 nodules in total). One hour after filler injections (T=1 h), 1.5 mL of one of eight test hyperosmotic solutions (1-8 solutions, Table 5) was injected at an injection site. One injection site was untreated and one injection site was treated with normal saline (0.9% wt/v NaCl).

[3] = X-ray CT of volume, mean density and 3D shape of Radiesse nodules and injected hyperosmotic solutions (Example 4); assay type: in vivo, Pig (Sus scrofa domesticus); conditions: for Change in Volume as percent of Injected Volume, Day 14/15: Example 4 (Day 15); for Change in Volume as percent of Injected Volume, Day 14/15 / Change in Volume as percent of Injected Volume, Day 0 + 1 h 15 / Change in Volume as percent of Injected Volume, Day 0 + 2 h / Change in Volume as percent of Injected Volume, Day 0 + 4 h / Change in Volume as percent of Injected Volume, Day 1 / Change in Volume as percent of Injected Volume, Day 3 / Change in Volume as percent of Injected Volume, Day 7: mean; for Change in Volume as percent of Injected Volume, Day 0 + 1 h 15 / Change in Volume as percent of Injected Volume, Day 0 + 2 h / Change in Volume as percent of Injected Volume, Day 0 + 4 h / Change in Volume as percent of Injected Volume, Day 1 / Change in Volume as percent of Injected Volume, Day 3 / Change in Volume as percent of Injected Volume, Day 7: Example 4
Procedure: Pigs are injected by SC route with Radiesse® filler without Lidocaine (Test item). One hour after the Radiesse® filler injection, selected different hyperosmotic solutions are injected by SC route into the dermal filler nodules. For two Radiesse® filler nodules per pig, no additional product is injected; these nodules are used as controls.
The evolution over time of the volume and mean density of the Radiesse® filler nodules with injection of the different solutions are assessed by CT-scanner at selected time points: on Day 0, at about 1 hour (h) and 15 minutes (min), 2 h and 4 h after the Radiesse® filler injection and solution injection, and then, on Day 1 (about 24 h after Radiesse® filler injection), Day 3, Day 7 and Day 15.
On Day 0, 4 pigs received ten (10) SC injections of Radiesse® dermal filler (P20WK-EE-01) of about 500 μl/nodule in the flank (ventral area) at T=0. One hour after Radiesse® dermal filler injections (T=1 h), about 1.5 ml of different hyperosmotic solutions (P20WK-EE-02 to P20WK-EE-05) were each injected into 8 Radiesse® filler nodules. Two Radiesse® filler nodules per animal were not injected with hyperosmotic solution and served as controls.
A total of 7 CT-scans were performed at 1 h 15±10 min, 2 h±15 min, 4 h±20 min, 1 day (24 h±1 h), 3, 7 and 15 days after injection of the dermal filler, as described in FIG. 9A.
On Day 0 (TO), 10 SC injections of test item P20WK-EE-01 (Radiesse® dermal filler) were performed in the ventral area (five nodules on each flank of the ventral area). For each SC nodule, a theoretical volume of 500 μL was administered. One hour (±5 min) after injection of dermal filler, SC injections of the different solutions (prepared on Day −3) were performed into 8 nodules of dermal filler. For each injection of solution, a theoretical volume of 1.5 mL was administered (see, e.g., injection scheme in Table 11).
In order to measure the volume, the mean density and to visualize the 3D shape of the dermal filler SC injected (in presence or absence of different hyperosmotic solutions), in vivo CT-scans were performed on Day 0: 1 h 15 (±10 min), 2 h (±15 min) and 4 h (±20 min), on Day 1 (24 h±1 h), Day 3, Day 7 and Day 15.
The CT acquisitions are analyzed with the software Avizo version 9.2.0. The objective of this analysis was to assess the dispersion over time of the Radiesse® dermal filler injected by SC route after injection of different hyperosmotic solutions.
To achieve this goal, the evolution of these parameters is observed over time: • the volume of each nodule (Radiesse® dermal filler and solution separately), • the mean density of each nodule (Radiesse® dermal filler and solution separately), • the 3D shape of each nodule by visualization of the 3D model of each nodule at each time point (Radiesse® dermal filler with or without solution separately). Segmentation:
An image segmentation is performed on each CT acquisition on the […] reconstruction. At first, a manual pre-segmentation is performed around each nodule in order to roughly isolate the voxels corresponding to Radiesse® dermal filler and hyperosmotic solutions and defined a Region of Interest (ROI). Secondly, an automatic segmentation is applied on the ROI previously defined using a global grey level thresholding procedure. […] Similarly, all the voxels having a grey level between these HU values are selected in a ROI and corresponds to the pure solution or solution containing some dispersed Radiesse® dermal filler (see, FIG. 10).
Then, a 3D model of these selected voxels (see, FIG. 11) is obtained allowing the calculation of the total volume (in mm^3) and the mean density (in HU) of the two defined compartments of each nodule of Pure Radiesse® dermal filler and of each solution containing or not containing dispersed Radiesse® dermal filler.
The volume (in mm^3) of the ROI of Radiesse® dermal filler and the solutions corresponding to each nodule and the mean density (in HU) of each nodule are calculated at each time point.

[Ca+2].[Cl-].[Cl-] [sol 4, Calcium chloride]
local tolerance at injection site [1]: large wound on pigs
local tolerance at injection site ([1]; listed as CaCl2): strong local irritating effect
local tolerance at injection site ([1]; listed as ClCl2): severe skin necrosis
nodule visibility / degradation of filler at end of study ([2]; Day 14, CT 3D models): largely degraded/dispersed the Radiesse® dermal filler
Change in Volume as percent of Injected Volume, Day 14/15 ([2]; Example 3 (Day 14), mean): 169.73* percent
Change in Volume as percent of Injected Volume, Day 0 + 2 h ([2]; Example 3, mean): 162.46%
Change in Volume as percent of Injected Volume, Day 0 + 4 h ([2]; Example 3, mean): 157.72%
Change in Volume as percent of Injected Volume, Day 1 ([2]; Example 3, mean): 145.42* percent
Change in Volume as percent of Injected Volume, Day 3 ([2]; Example 3, mean): 174.24* percent
Change in Volume as percent of Injected Volume, Day 7 ([2]; Example 3, mean): 175.91* percent
Change in Volume as percent of Injected Volume, Day 0 + 1 h 15 ([2]; Example 3, mean, 1.5 mL solution into 500 μl nodule): 170.60* percent

O.O.O=C([O-])CC(O)(CC(=O)[O-])C(=O)[O-].[Na+].[Na+].[Na+] [sol 9, Sodium citrate, dihydrate]
Change in Volume as percent of Injected Volume, Day 14/15 [3]: 1969%
Change in Volume as percent of Injected Volume, Day 0 + 1 h 15 [3]: 1488%
Change in Volume as percent of Injected Volume, Day 0 + 2 h [3]: 1571%
Change in Volume as percent of Injected Volume, Day 0 + 4 h [3]: 1901%
Change in Volume as percent of Injected Volume, Day 1 [3]: 2210%
Change in Volume as percent of Injected Volume, Day 3 [3]: 2010%
Change in Volume as percent of Injected Volume, Day 7 [3]: 2243%
average of the mean density of solution nodules, T=1 h 15 ([3]; between −100 HU and 250 HU): 18.4±7.0 HU
average of the mean density of solution nodules, T=2 h ([3]; between −100 HU and 250 HU): 2.1±7.9 HU
mean volume of solution with potential dispersed Radiesse, T=2 h ([3]; between −100 HU and 250 HU): 4319.7±989.2 mm^3
variation of the average of the mean density of solutions, Day 15 compared to T=1 h 15 ([3]; between −100 HU and 250 HU): 347.7%
average of the mean density of nodules, Day 1 ([3]; pure Radiesse >250 HU): 447.0±34.1 HU
average of the mean density of nodules, Day 3 ([3]; pure Radiesse >250 HU): 478.2±64.8 HU

O=C([O-])O.[Na+] [sol 14, Sodium hydrogen carbonate (sodium bicarbonate)]
Change in Volume as percent of Injected Volume, Day 14/15 [3]: 1977%
Change in Volume as percent of Injected Volume, Day 0 + 1 h 15 [3]: 1529* percent
Change in Volume as percent of Injected Volume, Day 0 + 2 h [3]: 1561%
Change in Volume as percent of Injected Volume, Day 0 + 4 h [3]: 1799%
Change in Volume as percent of Injected Volume, Day 1 [3]: 2214%
Change in Volume as percent of Injected Volume, Day 3 [3]: 2014%
Change in Volume as percent of Injected Volume, Day 7 [3]: 2345%
average of the mean density of solution nodules, T=1 h 15 ([3]; between −100 HU and 250 HU): 25.7±5.5 HU
average of the mean density of solution nodules, T=2 h ([3]; between −100 HU and 250 HU): 14.1±7.1 HU
mean volume of solution with potential dispersed Radiesse, Day 15 ([3]; between −100 HU and 250 HU): 1352.3±570.6 mm^3
mean volume of solution with potential dispersed Radiesse, T=2 h ([3]; between −100 HU and 250 HU): 2577.4±54.0 mm^3
variation of solution volume on Day 15 compared to the injected volume on T=1 h ([3]; between −100 HU and 250 HU): −1.4%
average of the mean density of nodules, Day 15 ([3]; pure Radiesse >250 HU): 441.3±62.9 HU
